Experimental data published in patent US5843959A, “Methods and bicyclic polyamine compositions for the treatment of inflammation” (University of Florida Research Foundation, Inc., priority 1997, dated 1998).

Tests used:
[1] = tested on: BALB/c responder splenocytes with CBA/J stimulator cells; assay: Mixed lymphocyte response (MLR); format: cell-based, mouse (BALB/c
Protocol: This study examined the potential immunomodulatory activities of PIP[4,4,4] on mouse spleen cells using in vitro techniques. The effect of the compound on the ability of murine splenocytes to respond to the […] mitogen concanavalin A (Con A) and the B cell mitogen lipopolysaccharide (LPS) was studied. […] In addition, the compound was tested for its effect on the mixed lymphocyte response (MLR). The MLR is an in vitro manifestation of cell-mediated immunity in which T cells respond to differences in major histocompatibility complex (MHC) class II molecules (Ia antigens) expressed on foreign or allogeneic leukocytes (primarily B cells and […]/monocytes).
a. Preparation of cells--Under sterile conditions, spleens were removed from BALB/c (H-2^d) and CBA/J (H-2^k) mice. BALB/c splenocytes were used as responder cells in the mitogen assays and the MLR assays, whereas CBA/J cells were used as stimulator cells in the MLR assays. […] Cells were exposed to various concentrations of the test compounds for the entire culture period. The initial dilutions in medium were filter sterilized to maintain aseptic conditions.
c. […] Thus, a BALB/c (2×10^5 cells/well) anti-CBA/J (8×10^5 cells/well) MLR combination was used in these studies. CBA/J spleen cells were irradiated with 2,000 R to prevent them from responding to BALB/c MHC antigens. Triplicate wells were set up in 96-well flat-bottom microtiter plates for all treated cultures and positive controls (100% of control) were performed in replicates of nine wells. Plates were incubated at 37° C. in a humidified CO2 incubator for 5 days, pulsed with 1 μCI […]/well for 6-16 hours, harvested and counted in a liquid scintillation counter. All data were processed using Lotus 1-2-3 and SigmaPlot software.

[2] = Solubility in the vehicle; format: physicochemical; details: distilled water
Protocol: PIP[4,4,4] was obtained as described above. Distilled water was used as the vehicle for in vivo testing. […] Commercially obtained chemicals used were indomethacin and hydrocortisone (Sigma, St. Louis, Mo., U.S.A.), aspirin (Miles Labs., Elkart, IN, U.S.A.), carrageenan (Tokyo Kasei Industry Co., Ltd.), Mycobacterium tuberculosis (Difco Labs., Detroit, Mich., U.S.A.) and carboxymethyl-cellulose (Wako Pure Chemical Industries, Osaka, Japan). Doses of all compounds used were calculated on the basis of the weight of the salt.

With `C(CCNCC1CCNCC1)CNCC1CCNCC1` [PIP[4,4,4], N,N'-Bis(4-piperidinylmethyl)-1,4-butanediamine] the “Effect on MLR (in words)” value [1] was “MLR was inhibited by PIP[4,4,4] primarily at 10 and 100 μm”, the “Proliferative response (CPM), Mean ± SD” value ([1]; MLR, 5 days, drug 0.010 μm) was 330859 ± 11640 CPM and the “Proliferative response (CPM), Mean ± SD” value ([1]; MLR, 5 days, drug 0.100 μm) was 411919 ± 6106 CPM. The “Proliferative response (CPM), Mean ± SD” value ([1]; MLR, 5 days, drug 1.000 μm) was 54594 ± 11873 CPM, the “Proliferative response (CPM), Mean ± SD” value ([1]; MLR, 5 days, drug 10.000 μm) was 568531 ± 6200 CPM and the “Proliferative response (CPM), Mean ± SD” value ([1]; MLR, 5 days, drug 100.000 μm) was 29717 ± 3146 CPM. The “Proliferative response (CPM), Mean ± SD” value ([1]; MLR, 5 days, drug 1000.000 μm) was 22583 ± 2490 CPM, the activity at 0.01 µM ([1]; Mus musculus, Splenocyte, 120 h, MLR, 5 days, drug 0.010 μm, read-out: % Control) was 79% and the activity at 0.1 µM ([1]; Mus musculus, Splenocyte, 120 h, MLR, 5 days, drug 0.100 μm, read-out: % Control) was 99%. The activity at 1 µM ([1]; Mus musculus, Splenocyte, 120 h, MLR, 5 days, drug 1.000 μm, read-out: % Control) was 131%, the activity at 10 µM ([1]; Mus musculus, Splenocyte, 120 h, MLR, 5 days, drug 10.000 μm, read-out: % Control) was 136% and the activity at 100 µM ([1]; Mus musculus, Splenocyte, 120 h, MLR, 5 days, drug 100.000 μm, read-out: % Control) was 71%. The activity at 1000 µM ([1]; Mus musculus, Splenocyte, 120 h, MLR, 5 days, drug 1000.000 μm, read-out: % Control) was 54% and the “Solubility in the vehicle” value [2] was “completely soluble”.
